# Assays:
# [1] = target: T1, human adenosine A3 receptors (Homo sapiens, UniProt P0DMS8); experiment: Reporter gene experiments in CHO cells (CRE/SPAP, inhibition of forskolin-stimulated SPAP production); format: cell-based; conditions: ECR = equipotent concentration ratio relative to NECA = 1; agonist potency, CHO CRE/SPAP reporter gene assay
# T1 construct: expressed in transfected cells; host or cells: Chinese hamster ovary (CHO) cells with CRE/SPAP/HYG reporter
# T1 sequence (P0DMS8 1-318): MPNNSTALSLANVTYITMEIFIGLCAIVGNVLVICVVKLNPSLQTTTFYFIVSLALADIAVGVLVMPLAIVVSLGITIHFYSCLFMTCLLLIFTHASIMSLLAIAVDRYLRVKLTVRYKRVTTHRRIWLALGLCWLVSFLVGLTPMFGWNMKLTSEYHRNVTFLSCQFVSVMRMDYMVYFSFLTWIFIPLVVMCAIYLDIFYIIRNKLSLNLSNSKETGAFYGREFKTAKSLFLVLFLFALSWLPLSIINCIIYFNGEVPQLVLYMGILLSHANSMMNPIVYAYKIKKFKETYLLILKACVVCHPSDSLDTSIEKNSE
# Source text: The compounds useful in the invention are agonists at the adenosine A1 receptor. Preferably they are selective agonists at the adenosine A1 receptor. By selective is meant that the affinity for the A1 receptor is at least 2 times, preferably 5 times and more preferably 10 times greater than the other adenosine receptor subtypes, particularly A3. Agonist selectivity of compounds against other human adenosine receptors can be determined using Chinese hamster ovary (CHO) cells transfected with the gene for the relevant human adenosine receptor following a method based on that of Castanon, K V. and Spevak, W. (1994) Biochem. Biophys. Res. Commun. 198, 626-631. The CHO cells are also transfected with cyclic AMP response elements promoting the gene for secreted placental alkaline phosphatase (SPAP) (Wood, K V. (1995) Cuff. Opinion. Biotechnology, 6, 50-58). The effect of test compounds is determined by their effects on basal levels of cAMP (A2a) or on forskolin-enhanced cAMP (A1 and A3) as reflected by changes in levels of SPAP. EC50 values for compounds are determined as a ratio to that of the non-selective agonist N-ethyl carboxamidoadenosine (NECA). “Adenosine receptors: New opportunities for future drugs” (S. A. Poulsen et al, Bioorg. Med. Chem,. 1998, 6, 619-641) summarises disease conditions that may be treated with adenosine A1 agonists.
# Reporter Gene Experiments in CHO cells
# Agonist activity at human adenosine A3 receptors was measured in Chinese hamster ovary (CHO) cells containing the CRE/SPAP/HYG (CRE=cyclic AMP response element; HYG=hygromycin resistance; SPAP=secreted placental alkaline phosphatase) reporter gene elements, which upon stimulation of cAMP levels produced SPAP. A cell line was used which was stably transfected with the human adenosine A3 receptor in addition to the above elements. Cells were plated out in 96-well plates in culture medium and incubated at 37° C. for 1 hour. For measurement of potency, agonists were added to the appropriate wells at a concentration range of approximately 10^−10-10^−5M. 15 Min later, cAMP levels were stimulated by addition of a maximal concentration of forskolin. All cells were then incubated for a further 5 hours at 37° C., and cooled to room temperature, after which a substrate for the phosphatase (para-nitrophenol phosphate, pNPP), which is converted by SPAP to a coloured reagent) was then added and the 96-well plates were read in a plate reader. From these readings, the concentration-dependence of the inhibition by the agonist for forskolin-stimulated SPAP production can be calculated. As with the yeast assays, one of the agonists tested on each 96-well plate was the standard non-selective agonist, N-ethylcarboxamidoadenosine (NECA), and the potency of all test agonists is expressed relative to that of the NECA standard.
# [2] = target: T2, human adenosine A1 receptors (Homo sapiens, UniProt P30542); experiment: Reporter gene experiments in yeast (agonist activity, β-galactosidase/FDG readout); format: cell-based; set-up: key: equipotent concentration ratio relative to NECA = 1; conditions: ECR = equipotent concentration ratio relative to NECA = 1; agonist potency, yeast reporter gene assay
# T2 construct: expressed in transfected cells
# T2 sequence (P30542 1-326): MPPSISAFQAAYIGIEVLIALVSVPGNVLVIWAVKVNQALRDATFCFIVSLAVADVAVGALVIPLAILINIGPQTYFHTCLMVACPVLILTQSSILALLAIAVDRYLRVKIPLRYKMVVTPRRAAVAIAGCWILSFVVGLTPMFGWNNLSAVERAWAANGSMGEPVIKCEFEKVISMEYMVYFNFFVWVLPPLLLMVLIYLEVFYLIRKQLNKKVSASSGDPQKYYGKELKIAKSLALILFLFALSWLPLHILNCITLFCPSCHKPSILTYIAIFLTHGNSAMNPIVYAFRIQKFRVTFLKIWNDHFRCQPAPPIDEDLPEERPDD
# Protocol: Reporter Gene Experiments in Yeast
# Agonist activity at human adenosine A1 receptors was measured in yeast cell lines expressing the adenosine A1 receptor together with a chimeric G-protein which linked receptor stimulation to the expression of the enzyme β-galactosidase. Cells were plated out in 96-well plates in culture medium to which was added 2 mM 3-AT (3-aminotriazole) to limit basal growth in the absence of agonist stimulation, and FDG (fluorescein di-β-D-galactopyranoside) as substrate for β-galactosidase, which converts FDG to fluorescein. For measurement of potency, agonists were added to the appropriate wells at a concentration range of approximately 10^−10-10^−5M and incubated at 30° C. for 18 hours. At this point the amount of fluorescein generated was measured in a spectrophotometer. From these readings, the concentration-dependence of the stimulation by the agonist can be calculated. One of the agonists tested on each 96-well plate was the standard non-selective agonist, N-ethylcarboxamidoadenosine (NECA), and the potency of all test agonists is expressed relative to that of the NECA standard.
# (ECR=equipotent concentration ratio relative to NECA=1)
Compound,Adenosine A3 receptor ECR* [1],Adenosine A1 receptor ECR* [2]
"C#C[C@H]1O[C@@H](n2cnc3c(Nc4cccc(F)c4C)ncnc32)[C@H](O)[C@@H]1O [Example 37, (2R,3R,4S,5R)-5-ethynyl-2-{6-[(3-fluoro-2-methylphenyl)amino]-9H-purin-9-yl}tetrahydrofuran-3,4-diol]",>145,4.79
"C#C[C@H]1O[C@@H](n2cnc3c(Nc4cccc(Cl)c4C)ncnc32)[C@H](O)[C@@H]1O [Example 38, (2R,3R,4S,5R)-2-{6-[(3-Chloro-2-methylphenyl)amino]-9H-purin-9-yl}-5-ethynyltetrahydrofuran-3,4-diol]",>145,5.45
"(2R,3R,4S,5R)-2-[6-(cyclobutylamino)-9H-purin-9-yl]-5-ethynyltetrahydrofuran-3,4-diol [Example 5]",>196,3
"(2R,3R,4S,5R)-5-Ethynyl-2-{6-[(trans-4-hydroxycyclohexyl)amino]-9H-purin-9-yl}tetrahydrofuran-3,4-diol [Example 19]",>3208,8.57

# Next, values leading:
Adenosine A3 receptor ECR* [1],Adenosine A1 receptor ECR* [2],Compound
>168,7.36,"C#C[C@H]1O[C@@H](n2cnc3c(Nc4ccc(Cl)cc4C)ncnc32)[C@H](O)[C@@H]1O [Example 39, (2R,3R,4S,5R)-2-{6-[(4-Chloro-2-methylphenyl)amino]-9H-purin-9-yl}-5-ethynyltetrahydrofuran-3,4-diol]"
>505,16.94,"C#C[C@H]1O[C@@H](n2cnc3c(Nc4cc(Cl)ccc4C)ncnc32)[C@H](O)[C@@H]1O [Example 40, (2R,3R,4S,5R)-2-{6-[(5-chloro-2-methylphenyl)amino]-9H-purin-9-yl}-5-ethynyltetrahydrofuran-3,4-diol]"
>188,34.9,"C#C[C@H]1O[C@@H](n2cnc3c(Nc4ccc(F)c(F)c4)ncnc32)[C@H](O)[C@@H]1O [Example 43, (2R,3R,4S,5R)-2-{6-[(3,4-Difluorophenyl)amino]-9H-purin-9-yl}-5-ethynyltetrahydrofuran-3,4-diol]"
